Measurements taken from article PMC4562762 (Drug Design, Development and Therapy, 2015).

Columns and labels:
[1] = Stability in mouse serum at 37°C; assay type: in vitro ADME
[2] = Stability in serum-free RPMI 1640 media; assay type: in vitro ADME; conditions: serum-free RPMI 1640 medium
[3] = Stability in PBS supplemented with 10% BSA; assay type: physicochemical; conditions: 37°C
[4] = tested on: VSVG-pseudotyped HIV-1 pNL4-3 virus expressing luciferase (HIV-1 Luc); experiment: microbe, parasite or virus in culture; assay type: cell-based; conditions: Human immunodeficiency virus 1, read-out: IC50, one round HIV-1 infection
[5] = tested on: HIV-1 gag and env mRNAs; experiment: HIV-1 gag and env mRNA expression in infected CEM-T cells; assay type: cell-based; conditions: CEM-T cells infected with HIV-1 Luc, 1 μM, 48 hours
[6] = tested on: HIV-1 LTR; experiment: Tat-induced HIV-1 LTR and proviral pNL4-3 luciferase transcription in 293T cells; assay type: cell-based; conditions: 2 μM (legend: 1 μM)
[7] = tested on: HIV-1 LTR / NF-κB; experiment: Basal HIV-1 LTR and NF-κB driven luciferase transcription in 293T cells; assay type: cell-based; conditions: 2 μM (legend: 1 μM)
[8] = tested on: HIV-1 reverse transcription; experiment: Quantitative PCR for viral DNA; assay type: cell-based
[9] = tested on: HO-1; experiment: HO-1 mRNA expression; assay type: cell-based; conditions: 1 μM, 18S RNA normalization
[10] = tested on: CEM-T cells; experiment: Cell cycle analysis of CEM-T cells; assay type: cell-based; conditions: 1 μM, 24 hours
[11] = in vitro; conditions: human
[12] = in vitro; conditions: IC50, viability of PBMCs, trypan blue, activated PBMCs
[13] = CEM-T cells infected with HIV-1 Luc, compared with AZT

COc1cc(/C=C/C(=O)CC(=O)/C=C/c2ccc(O)c(OC)c2)ccc1O [curcumin]
half-life at 50 μM [1]: 600 min | half-life [2]: ~60 min | stabilizing effect of BSA (stability in PBS with 10% BSA) [3]: No stabilization and even a slight increase in degradation | IC50 [4]: 700 nM | expression of HIV-1 gag and env mRNAs [5]: significantly reduced | effect on transcription from proviral pNL4-3 plasmid [6]: Neither curcumin nor curcumin A at 2 μM concentrations had an effect | effect on Tat-induced HIV-1 transcription ([6]; HIV-1 LTR luciferase + Tat vector): Neither curcumin nor curcumin A at 2 μM concentrations had an effect | effect on NF-kB driven transcription [7]: no effect | effect on basal HIV-1 transcription ([7]; HIV-1 LTR luciferase vector): no effect | effect on HIV-1 reverse transcription (overall) ([8]; 2 μM): inhibited HIV-1 RT | effect on early LTR (early reverse transcription) [8, 13]: inhibited early LTR similarly or better than the established HIV-1 inhibitor, AZT | effect on late LTR formation (late reverse transcription) [8, 13]: no significant effect | HO-1 expression in PBMCs [9]: induced HO-1 | HO-1 expression in CEM-T cells ([9]; 24 hours): induced HO-1 | effect on cell cycle progression [10]: no effect | IC50 [11]: 1260 nM | IC50 [12]: 35 µM
